Consider ten compounds from patent KR20050021629A, “신규한 벤조플루오렌 디온계 화합물” (학교법인 이화학당, priority 2003, dated 2005).

The subject of assay [1] is human ovarian cancer cell line (SK-OV-3) (인간 난소암 세포주(SK-OV-3)). As to conditions: literature (Y. S. Kim et al. 2003); cited from earlier work.
For assay [2], the system named is human lung cancer cell line A549 (인간 폐암 세포주 (A549)). Kind of assay: SRB cytotoxicity test, human lung cancer cell line A549. The class given is cell-based.
Assay [3] concerns human melanoma cell line SK-MEL-2 (인간 흑색종암 세포주 (SK-MEL-2)). Description: SRB cytotoxicity test, human melanoma cell line SK-MEL-2. The format is cell-based. A general note: The SRB assay estimates cell density from bound dye.
The subject of assay [4] is human colon cancer cell line HCT15 (인간 결장암 세포주 (HCT15)). Kind of assay: SRB cytotoxicity test, human colon cancer cell line HCT15. The class given is cell-based.
Assay [5] concerns human central nervous system cancer cell line XF498 (인간 중추 신경계암 세포주 (XF498)). Kind of assay: SRB cytotoxicity test, human central nervous system cancer cell line XF498. The format is cell-based.
The subject of assay [6] is human ovarian cancer cell line SK-OV-3 (인간 난소암 세포주 (SK-OV-3)). Kind of assay: SRB cytotoxicity test, human ovarian cancer cell line SK-OV-3. The class given is cell-based.
Setting [7] is: A549, SRB assay, 48 h incubation, read-out: ED50 (the source's name).
The mark [8] stands for this setting: SK-MEL-2, SRB assay, 48 h incubation, read-out: ED50 (the source's name).
Where [9] appears, read: HCT 15, SRB assay, 48 h incubation, read-out: ED50 (the source's name).
Setting [10] is: XF498, XF 498, SRB assay, 48 h incubation, read-out: ED50 (the source's name).
[11] abbreviates: SK-OV-3, SRB assay, 48 h incubation, read-out: ED50 (the source's name).

Converted amounts (≈) assume the structure as drawn. Where two headings read alike, the source gives them in different places.

On to 2-메틸-4a,10,11-트리아자-벤조[3,2-a]플루오렌-5,6-디온, for which the “anticancer effect compared with doxorubicin” value in assay [1] was “독소루비신보다 항암효과가 우수함”.
Consider `COc1cccc2c1C(=O)c1c(O)c3c(c(O)c1C2=O)C[C@@](O)(C(=O)CO)C[C@@H]3O[C@H]1C[C@H](N)[C@H](O)[C@H](C)O1` [독소루비신, reference compound], for which the IC50 in assay [2] (A549, 48 h, read-out: ED50) came out at 0.093 µg/mL (≈ 0.171 µM); in assay [3] (SK-MEL-2, 48 h, read-out: ED50), 0.11 µg/mL (≈ 0.202 µM); in assay [4] (HCT-15, 48 h, read-out: ED50), 0.19 µg/mL (≈ 0.35 µM); in assay [5] (XF498, 48 h, read-out: ED50) it was 0.187 µg/mL (≈ 0.344 µM); in assay [6] (SK-OV-3, 48 h, read-out: ED50), 0.21 µg/mL (≈ 0.386 µM).
Take `Cc1cccn2c3c(nc12)-c1ncccc1C(=O)C3=O` [실시예 1, 10-메틸-1,6b,11-트리아자-벤조[3,2-a]플루오렌-5,6-디온]: the IC50 was determined as 0.054 µg/mL (≈ 0.205 µM) in assay [2] (setting [7]); 0.11 µg/mL (≈ 0.418 µM) in assay [3] (setting [8]); 0.044 µg/mL (≈ 0.167 µM) in assay [4] (setting [9]); 0.033 µg/mL (≈ 0.125 µM) in assay [5] (setting [10]); 0.073 µg/mL (≈ 0.277 µM) in assay [6] (setting [11]).
In the case of `Cc1cccc2nc3c(n12)C(=O)C(=O)c1cccnc1-3` [실시예 2, 7-메틸-1,6b,11-트리아자-벤조[3,2-a]플루오렌-5,6-디온], the IC50 came to 0.23 µg/mL (≈ 0.874 µM) in assay [2] (setting [7]); 1.08 µg/mL (≈ 4.1 µM) in assay [3] (setting [8]); 0.71 µg/mL (≈ 2.7 µM) in assay [4] (setting [9]); 0.2 µg/mL (≈ 0.76 µM) in assay [5] (setting [10]); 1.04 µg/mL (≈ 3.95 µM) in assay [6] (setting [11]).
Taken in the same sequence, the figures for `O=C1C(=O)c2c(nc3ccc(Cl)cn23)-c2ncccc21` [실시예 3, 8-클로로-1,6b,11-트리아자-벤조[3,2-a]플루오렌-5,6-디온] were 0.59 µg/mL (≈ 2.08 µM), 0.65 µg/mL (≈ 2.29 µM), 0.99 µg/mL (≈ 3.49 µM), 0.45 µg/mL (≈ 1.59 µM) and 0.55 µg/mL (≈ 1.94 µM).
Taken in the same sequence, the figures for `O=C1C(=O)c2c(nc3ncccn23)-c2ncccc21` [실시예 4, 1,6b,10,11-테트라아자-벤조[a]플루오렌-5,6-디온] were 0.12 µg/mL (≈ 0.48 µM), 0.034 µg/mL (≈ 0.136 µM), 0.077 µg/mL (≈ 0.308 µM), 0.081 µg/mL (≈ 0.324 µM) and 0.061 µg/mL (≈ 0.244 µM).
Taken in the same sequence, the figures for `O=C1C(=O)c2c(nc3cnccn23)-c2ncccc21` [실시예 5, 1,6b,9,11-테트라아자-벤조[a]플루오렌-5,6-디온] were 0.051 µg/mL (≈ 0.204 µM), 0.032 µg/mL (≈ 0.128 µM), 0.047 µg/mL (≈ 0.188 µM), 0.03 µg/mL (≈ 0.12 µM) and 0.02 µg/mL (≈ 0.0799 µM).
`O=C1C(=O)c2c(nc3ccccn23)-c2cnncc21` [실시예 6, 2,3,6b,11-테트라아자-벤조[a]플루오렌-5,6-디온]: the IC50 in assay [2] (setting [7]) turned out to be 0.022 µg/mL (≈ 0.0879 µM); in assay [3] (setting [8]) it was 0.12 µg/mL (≈ 0.48 µM); in assay [4] (setting [9]), 0.1 µg/mL (≈ 0.4 µM); in assay [5] (setting [10]), 0.12 µg/mL (≈ 0.48 µM); in assay [6] (setting [11]) it was 0.2 µg/mL (≈ 0.799 µM).
As for `Cc1ccc2nc3c(n2c1)C(=O)C(=O)c1cnncc1-3` [실시예 7, 8-메틸-2,3,6b,11-테트라아자-벤조[a]플루오렌-5,6-디온], the IC50 in assay [2] (setting [7]) came to 3.54 µg/mL (≈ 13.4 µM); in assay [3] (setting [8]), 1.77 µg/mL (≈ 6.7 µM); in assay [4] (setting [9]) it was 0.92 µg/mL (≈ 3.48 µM); in assay [5] (setting [10]), 1.77 µg/mL (≈ 6.7 µM); in assay [6] (setting [11]) it was 1.01 µg/mL (≈ 3.82 µM).
In the case of `COc1cc(C2c3cc4c(cc3C(OC3OC5COC(C)OC5C(O)C3O)C3COC(=O)C23)OCO4)cc(OC)c1O` (stereo not shown) [에토포시드, reference compound], the IC50 in assay [2] (A549, 48 h, read-out: ED50) worked out at 0.577 µg/mL (≈ 0.98 µM); in assay [3] (SK-MEL-2, 48 h, read-out: ED50) it was 1.37 µg/mL (≈ 2.33 µM); in assay [4] (HCT-15, 48 h, read-out: ED50), 0.97 µg/mL (≈ 1.65 µM); in assay [5] (XF498, 48 h, read-out: ED50), 1.43 µg/mL (≈ 2.43 µM); in assay [6] (SK-OV-3, 48 h, read-out: ED50), 1.84 µg/mL (≈ 3.13 µM).
